Data published in the NIST ThermoML archive (doi:10.1016/j.jct.2005.04.015).

Test: excess molar enthalpy (molar enthalpy of mixing); xn = mol fraction of the nth substance listed
Conditions: Liquid, Flow calorimetry

CCOC=O [ethyl methanoate] + CCCCO
excess molar enthalpy [kcal/mol]
Conditions	298.15 K	308.15 K
5000 kPa, x1 = 0.0499	0.0919	–
5000 kPa, x1 = 0.1005	0.17	–
5000 kPa, x1 = 0.1488	0.232	–
5000 kPa, x1 = 0.2008	0.285	–
5000 kPa, x1 = 0.2505	0.325	–
5000 kPa, x1 = 0.3009	0.355	–
5000 kPa, x1 = 0.3488	0.377	–
5000 kPa, x1 = 0.4006	0.393	–
5000 kPa, x1 = 0.4498	0.401	–
5000 kPa, x1 = 0.4997	0.399	–
5000 kPa, x1 = 0.6015	0.376	–
5000 kPa, x1 = 0.65	0.356	–
5000 kPa, x1 = 0.6991	0.33	–
5000 kPa, x1 = 0.7489	0.294	–
5000 kPa, x1 = 0.7993	0.252	–
5000 kPa, x1 = 0.8503	0.202	–
5000 kPa, x1 = 0.8983	0.148	–
5000 kPa, x1 = 0.9507	0.073	–
10000 kPa, x1 = 0.0497	0.0909	–
10000 kPa, x1 = 0.1002	0.169	–
10000 kPa, x1 = 0.1501	–	0.259
10000 kPa, x1 = 0.1514	0.233	–
10000 kPa, x1 = 0.1999	–	0.314
10000 kPa, x1 = 0.2003	0.281	–
10000 kPa, x1 = 0.2499	0.319	–
10000 kPa, x1 = 0.2504	–	0.359
10000 kPa, x1 = 0.2989	–	0.39
10000 kPa, x1 = 0.3002	0.348	–
10000 kPa, x1 = 0.3508	–	0.416
10000 kPa, x1 = 0.3513	0.372	–
10000 kPa, x1 = 0.3998	0.385	–
10000 kPa, x1 = 0.4007	–	0.431
10000 kPa, x1 = 0.449	0.393	–
10000 kPa, x1 = 0.4514	–	0.438
10000 kPa, x1 = 0.4989	0.393	–
10000 kPa, x1 = 0.4998	–	0.437
10000 kPa, x1 = 0.549	–	0.429
10000 kPa, x1 = 0.5494	0.385	–
10000 kPa, x1 = 0.5988	–	0.414
10000 kPa, x1 = 0.6007	0.371	–
10000 kPa, x1 = 0.6492	0.35	0.391
10000 kPa, x1 = 0.6984	0.324	–
10000 kPa, x1 = 0.7004	–	0.361
10000 kPa, x1 = 0.7482	0.288	–
10000 kPa, x1 = 0.7493	–	0.326
10000 kPa, x1 = 0.7987	0.244	0.281
10000 kPa, x1 = 0.8488	–	0.228
10000 kPa, x1 = 0.8499	0.193	–
10000 kPa, x1 = 0.8996	–	0.165
10000 kPa, x1 = 0.9018	0.134	–
10000 kPa, x1 = 0.9506	0.0751	–

CCOC=O [ethyl methanoate] + CCCO
excess molar enthalpy [kcal/mol]
Conditions	298.15 K	308.15 K
5000 kPa, x1 = 0.0488	0.0707	–
5000 kPa, x1 = 0.1003	0.15	–
5000 kPa, x1 = 0.1515	0.212	–
5000 kPa, x1 = 0.1993	0.258	–
5000 kPa, x1 = 0.2498	0.297	–
5000 kPa, x1 = 0.3	0.324	–
5000 kPa, x1 = 0.3498	0.344	–
5000 kPa, x1 = 0.3992	0.359	–
5000 kPa, x1 = 0.4512	0.363	–
5000 kPa, x1 = 0.5	0.361	–
5000 kPa, x1 = 0.5513	0.353	–
5000 kPa, x1 = 0.5995	0.341	–
5000 kPa, x1 = 0.6501	0.323	–
5000 kPa, x1 = 0.7003	0.297	–
5000 kPa, x1 = 0.7502	0.265	–
5000 kPa, x1 = 0.7998	0.225	–
5000 kPa, x1 = 0.849	0.181	–
5000 kPa, x1 = 0.9006	0.124	–
5000 kPa, x1 = 0.9491	0.0666	–
10000 kPa, x1 = 0.0487	0.0792	0.0703
10000 kPa, x1 = 0.1	0.158	–
10000 kPa, x1 = 0.1511	0.22	0.221
10000 kPa, x1 = 0.1988	0.266	0.269
10000 kPa, x1 = 0.2492	0.303	0.309
10000 kPa, x1 = 0.2993	0.331	0.34
10000 kPa, x1 = 0.349	0.35	0.361
10000 kPa, x1 = 0.4013	0.363	0.376
10000 kPa, x1 = 0.4504	0.37	0.383
10000 kPa, x1 = 0.4992	0.368	0.382
10000 kPa, x1 = 0.5505	0.361	0.374
10000 kPa, x1 = 0.5987	0.348	0.359
10000 kPa, x1 = 0.6493	0.329	0.337
10000 kPa, x1 = 0.6996	0.302	0.311
10000 kPa, x1 = 0.7496	0.27	0.276
10000 kPa, x1 = 0.7993	0.232	0.234
10000 kPa, x1 = 0.8513	0.184	0.185
10000 kPa, x1 = 0.9003	0.132	0.134
10000 kPa, x1 = 0.949	0.072	0.0643
